Reference: patent US20240002387A1, “METHOD FOR PREPARING BTK DEGRADING AGENT” (HAISCO PHARMACEUTICALS PTE. LTD., priority 2020, published 2024)

Legend:
[1] = biological target: BTK C481S (Homo sapiens (Human), UniProt Q06187, C481S); experiment: In vitro kinase detection, BTK C481S; assay type: biochemical
Method: (§1) Kinases BTK wt (Carna, Cat. No. 08-180) and BTK C481S (Cama, Cat. No. 08-547) were prepared into a 2.5× kinase solution, and the substrates FAM-P2 (GL Biochem, Cat. No. 112394) and ATP (Sigma, Cat. No. A7699-1G) were prepared into a 2.5× substrate solution, respectively. 5 μL of compounds at different concentrations were added to a 384-well plate. 10 μl of 2.5× kinase solution was added, and the resulting mixture was incubated at room temperature for 10 min. 10 μL of 2.5× substrate solution was added, and the mixture was incubated at 28° C. for an appropriate period of time. The reaction was stopped by adding 30 μL of stop buffer, and the detection was carried out by using Caliper EZ reader2. The IC50 value was calculated by using XLFit excel add-in version 5.4.0.8 software. The calculation formula of the inhibition rate was shown in formula (3), wherein max denoted the readout of the DMSO control, min denoted the readout of the negative control, and conversion denoted the readout of the compound

[2] = biological target: BTK (Mus musculus (Mouse), UniProt P35991); experiment: Detection of BTK protein degradation in spleen of mice; assay type: in vivo
BTK (Mus musculus (Mouse), UniProt P35991), sequence (P35991 whole entry): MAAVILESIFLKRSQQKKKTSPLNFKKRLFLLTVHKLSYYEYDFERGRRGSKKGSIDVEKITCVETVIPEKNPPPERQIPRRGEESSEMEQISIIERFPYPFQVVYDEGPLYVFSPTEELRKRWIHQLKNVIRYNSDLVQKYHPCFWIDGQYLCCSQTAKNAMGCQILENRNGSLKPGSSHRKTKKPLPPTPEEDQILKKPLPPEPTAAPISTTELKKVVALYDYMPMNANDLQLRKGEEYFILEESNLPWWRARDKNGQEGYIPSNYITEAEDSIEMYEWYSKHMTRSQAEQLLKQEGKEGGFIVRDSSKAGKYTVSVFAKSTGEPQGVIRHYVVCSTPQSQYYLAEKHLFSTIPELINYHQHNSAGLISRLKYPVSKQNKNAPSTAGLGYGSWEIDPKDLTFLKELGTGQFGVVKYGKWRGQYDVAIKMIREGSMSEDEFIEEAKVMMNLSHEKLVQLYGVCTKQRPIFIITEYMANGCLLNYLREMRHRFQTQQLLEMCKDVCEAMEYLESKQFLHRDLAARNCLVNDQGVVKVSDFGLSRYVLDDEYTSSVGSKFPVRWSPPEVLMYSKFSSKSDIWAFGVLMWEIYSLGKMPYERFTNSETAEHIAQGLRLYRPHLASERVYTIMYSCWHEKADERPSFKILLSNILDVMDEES
Method: Female ICR mice, 6-8 weeks old, were purchased from BEIJING VITAL RIVER LABORATORY ANIMAL TECHNOLOGY CO., LTD., and the experiment was started after 3 days of acclimatization. After intragastric administration of different doses of the compound for 3 consecutive days, the spleen of mice was taken, the spleen cells were collected, and RIPA lysis buffer (Beyotime, Cat. P0013B) was added. The cells were lysed on ice for 15 minutes and centrifuged at 12000 rpm at 4° C. for 10 minutes. The protein sample of the supernatant was collected, the protein was quantified by using the BCA kit (Beyotime, Cat. P0009), and then the protein was diluted to 0.25 mg/mL. The expressions of BTK (CST, Cat. 8547S) and the internal reference (3-actin (CST, Cat. 3700S) were detected using a fully automated western blot quantitative analyzer (Proteinsimple). The expression level of BTK relative to the internal reference was calculated using Compass software, and the DD50 value was calculated using Origen9.2 software according to formula (2). Specifically, the BTKadministration denoted the expression level of BTK in administration groups at different doses, and the BTKvehicle denoted the expression level of BTK in the vehicle control group.
BTK %=BTKadministration/BTKvehicle×100 formula (2)

[3] = biological target: BTK (Homo sapiens (Human), UniProt Q06187); experiment: Detection of BTK degradation in Mino cells; assay type: cell-based
BTK (Homo sapiens (Human), UniProt Q06187), sequence (Q06187 whole entry): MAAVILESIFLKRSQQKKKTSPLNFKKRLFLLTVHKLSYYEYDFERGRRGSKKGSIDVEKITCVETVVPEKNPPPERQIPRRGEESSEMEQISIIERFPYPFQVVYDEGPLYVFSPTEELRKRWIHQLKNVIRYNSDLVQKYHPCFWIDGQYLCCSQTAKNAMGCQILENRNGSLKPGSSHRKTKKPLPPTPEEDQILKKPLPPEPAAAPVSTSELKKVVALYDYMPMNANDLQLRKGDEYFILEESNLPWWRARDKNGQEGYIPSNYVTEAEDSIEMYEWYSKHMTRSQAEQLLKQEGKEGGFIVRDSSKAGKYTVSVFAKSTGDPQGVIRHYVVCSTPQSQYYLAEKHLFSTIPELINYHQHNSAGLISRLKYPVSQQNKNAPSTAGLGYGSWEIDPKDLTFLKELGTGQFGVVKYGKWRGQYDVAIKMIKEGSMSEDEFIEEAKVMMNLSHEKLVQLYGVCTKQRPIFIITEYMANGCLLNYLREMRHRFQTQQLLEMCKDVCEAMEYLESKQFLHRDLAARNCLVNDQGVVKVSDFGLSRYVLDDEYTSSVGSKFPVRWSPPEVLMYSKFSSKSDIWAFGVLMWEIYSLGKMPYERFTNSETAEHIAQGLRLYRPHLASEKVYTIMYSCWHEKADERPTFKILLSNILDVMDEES
Method: Mino human mantle cell lymphoma cell line was purchased from ATCC and cultured under the following conditions: RPMI-1640+15% FBS+1% double antibody in a 37° C., 5% CO2 incubator. Cells were plated in a 6-well plate, with 5×10^5 cells/well. After plating, the compounds at different concentrations were added and cultured in an incubator at 37° C. under 5% CO2 for 48 hours. After culturing, the cells were collected, and RIPA lysis buffer (Beyotime, Cat. P0013B) was added. The cells were lysed on ice for 15 minutes and centrifuged at 12000 rpm at 4° C. for 10 minutes. The protein sample of the supernatant was collected, and the protein was quantified by using the BCA kit (Beyotime, Cat. P0009), and then the protein was diluted to 0.25 mg/mL. The expressions of BTK (CST, Cat. 8547S) and the internal reference (3-actin (CST, Cat. 3700S) were detected using a fully automated western blot quantitative analyzer (Proteinsimple) with a kit (Protein simple, Cat. SM-W004). The expression level of BTK relative to the internal reference was calculated using Compass software, and the DC50 value was calculated using Origen9.2 software according to formula (1). Specifically, the BTK administration denoted the expression level of BTK in administration groups at different doses, and the BTK vehicle denoted the expression level of BTK in the vehicle control group. […]

[4] = biological target: BTK wt (Homo sapiens (Human), UniProt Q06187); experiment: In vitro kinase detection, BTK wt; assay type: biochemical
BTK wt, sequence (Q06187 whole entry): as above
Method: as §1

BTK C481S, sequence (Q06187 whole entry C481S): as the sequence (Q06187 whole entry) above, with C481S counted along it

- IC50 [1]: 8 nM
- inhibitory effect on BTK C481S kinase (conclusion) [1]: significant inhibitory effect
- degradation effect on BTK proteins in spleen of mice (conclusion) [2]: significant degradation effect
- degradation effect on BTK in Mino cells (conclusion) [3]: significant degradation effect
- DC50 ([3]; 48 hours, western blot): 10.9 nM
- IC50 [4]: 6.3 nM
- inhibitory effect on BTK wt kinase (conclusion) [4]: significant inhibitory effect
SMILES: Nc1ncnc2c1c(-c1ccc(Oc3ccccc3)cc1)nn2C1CCN(C2CN(C3CN(c4ccc5c(c4)C(=O)N(C4CCC(=O)NC4=O)C5=O)C3)C2)CC1 (stereo not shown) [Compound 1, 5-[3-[3-[4-[4-amino-3-(4-phenoxyphenyl]pyrazolo[3,4-d]pyrimidin-1-yl]-1-piperidyl]azetidin-1-yl]azetidin-1-yl]-2-(2,6-dioxo-3-piperidyl)isoindoline-1,3-dione]
